Measured values reported in US7342090B1, “Fab-epitope complex from the HIV-1 cross-neutralizing monoclonal antibody 2F5” (University of Toronto, priority 1999, dated 2008).
Square brackets hold non-standard residues; d marks the D form. Ends that are not written are not given here. Dap = NC[C@H](N)C(=O)O

Tested on: monoclonal antibody 2F5
Test: Immuno-complex formation of constrained peptides with monoclonal antibody 2F5
Assay type: binding, human
Conditions: subsequently co-crystallized with the Fab′ fragment

Chain of monoclonal antibody 2F5 (as listed by the source, other chains not shown): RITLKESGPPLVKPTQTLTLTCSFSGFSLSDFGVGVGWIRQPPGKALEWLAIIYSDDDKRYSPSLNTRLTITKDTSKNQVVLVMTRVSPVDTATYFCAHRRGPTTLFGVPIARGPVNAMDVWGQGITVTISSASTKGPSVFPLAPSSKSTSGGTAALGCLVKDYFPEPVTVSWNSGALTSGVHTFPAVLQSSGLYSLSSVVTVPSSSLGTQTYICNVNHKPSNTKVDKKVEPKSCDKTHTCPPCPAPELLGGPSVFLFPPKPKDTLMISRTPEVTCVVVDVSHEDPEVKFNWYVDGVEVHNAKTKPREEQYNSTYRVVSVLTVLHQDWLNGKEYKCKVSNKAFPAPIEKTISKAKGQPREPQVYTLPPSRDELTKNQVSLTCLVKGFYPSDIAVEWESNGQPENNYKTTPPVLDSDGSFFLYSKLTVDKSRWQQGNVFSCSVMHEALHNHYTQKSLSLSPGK

Row | Substance | formation of an immuno-complex with monoclonal antibody 2F5
1 | ECDKWCS [CLP-634] | capable of forming an immuno-complex
2 | E[Dap]DKWES [CLP-1309] | capable of forming an immuno-complex
